Experimental data as given in US20240360146A1, “BRUTON'S TYROSINE KINASE AND MUTANT DEGRADER, COMPOSITION AND APPLICATION THEREOF” (HANGZHOU HEALZEN THERAPEUTICS CO., LTD., priority 2021, published 2024).

Columns and labels:
[1] = Stability of compounds in human liver microsome; type: in vitro ADME; details: human liver microsomes, NADPH, 37° C., sampling 0-120 min; read-out: Human liver microsome T1/2
Protocol: Compound to be tested: the compound to be tested (1 mg) was dissolved in DMSO (10 mL) to formulate to 0.1 mg/mL.
Internal standard compound: the internal standard compound (1 mg) was dissolved in DMSO (10 mL), 10 μL was taken and diluted to 10 mL to formulate to 100 ng/mL.
NADPH solution: NADPH (2.08 mg) was dissolved in PBS (50 μL) buffer to formulate to 50 mM.
Under the condition of ice bath, 1 mg of human liver microparticles was add to PBS (1 mL) buffer, then NADPH (20 μL) was added, and incubated at 37° C. for 5 min. 10 μL of the compound to be tested was added, and then samples were taken at 0, 15, 30, 60 and 120 min respectively. 10 μL of the solution was taken with a pipette each time and added to 490 μL of the solution containing the internal standard compound. The resulting solution was vortexed and then placed on ice, and then sampling at another time point continues. All samples were centrifuged at 10,000 rpm for 10 min, and the supernatant was taken for LC/MS testing. The metabolism of the compound in liver microsomes was calculated based on the peak area.

[2] = Mouse absorption test (pharmacokinetic properties in mice); type: in vivo; details: intragastric; for DNAUC: DNAUC = AUC/Dose; for Cmax: mouse, plasma, po
Protocol: […] The blood collection time points for intragastric administration were 0.25, 0.5, 1, 2, 4, 6, 8, and 24 h. 0.5 mL of blood was taken with a capillary tube from the orbit, and placed in an EP tube containing EDTA anticoagulant. The EP tube was shaken gently for mixing uniformly, and centrifuged at 3500 rpm and 4° C. for 10 min. The supernatant, i.e., plasma, was taken. Analysis was performed using LC-MS/MS.

BTK = target: T1, BTK (Homo sapiens, UniProt Q06187); assay: BTK degradation activity test in Mino cells; type: cell-based; details: 16 h incubation, Western blot or Elisa
T1 construct: endogenous in cells; host or cells: Mino cells
Procedure, shortened: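 DC50 derived by curve fitting of BTK degradation rates versus untreated control across compound concentrations. Mino cells were exposed for 16 h; BTK levels in lysates, normalised via BCA protein, measured by Western blot or ELISA.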

OCI-LY10 cells = assay: Inhibitory activity on OCI-LY10 cell proliferation (MTS); type: cell-based; details: Homo sapiens, 72 h
Procedure, shortened: (§1)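 Cells seeded at 10000/well, treated with compounds from 1000 nM (4-fold, 8 points) for 72 h (OCI-LY10) or 168 h (Mino) at 37° C. MTS added for 2 h, stopped with SDS, absorbance read at 490 and 650 nm; IC50 from dose-response fit.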

Mino cells = assay: Inhibitory activity on Mino cell proliferation (MTS); type: cell-based; details: Homo sapiens, 168 h incubation
Procedure, shortened: as §1

T1 sequence (Q06187 whole entry): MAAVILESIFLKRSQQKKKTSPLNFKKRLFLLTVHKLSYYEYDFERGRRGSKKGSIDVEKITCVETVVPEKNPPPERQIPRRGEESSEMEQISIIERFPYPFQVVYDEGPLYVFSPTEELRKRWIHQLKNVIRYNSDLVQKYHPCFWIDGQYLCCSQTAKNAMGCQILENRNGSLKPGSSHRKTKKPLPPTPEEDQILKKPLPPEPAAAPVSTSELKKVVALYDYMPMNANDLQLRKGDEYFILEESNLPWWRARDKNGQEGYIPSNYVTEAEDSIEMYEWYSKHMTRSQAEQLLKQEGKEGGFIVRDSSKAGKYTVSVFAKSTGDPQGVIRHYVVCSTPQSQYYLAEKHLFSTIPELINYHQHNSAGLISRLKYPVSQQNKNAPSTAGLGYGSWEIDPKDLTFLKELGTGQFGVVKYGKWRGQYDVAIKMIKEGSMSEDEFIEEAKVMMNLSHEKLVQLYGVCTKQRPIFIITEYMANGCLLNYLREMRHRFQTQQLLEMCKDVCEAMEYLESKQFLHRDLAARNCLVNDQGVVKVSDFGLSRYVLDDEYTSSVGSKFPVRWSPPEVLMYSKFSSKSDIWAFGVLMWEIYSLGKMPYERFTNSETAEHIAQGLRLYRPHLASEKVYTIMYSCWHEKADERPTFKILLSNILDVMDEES

Row | half-life at 0.97 µg/mL [1] | DNAUC ([2]; 100 mg/kg) | Cmax ([2]; 100 mg/kg) | DC50 (BTK) | IC50 (OCI-LY10 cells) | DNAUC ([2]; 30 mg/kg) | Cmax ([2]; 30 mg/kg) | Cmax ([2]; 30 mg/kg, class symbols) | SMILES | IC50 (Mino cells)
1 | 5.18 min | 631 ng/ml*h/mpk | 4030 ng/mL |  |  |  |  |  | CN1CCN([C@@H]2CCCN(c3cnc(C(N)=O)c(Nc4ccc(C5CCN(CC6CCN(c7ccc8c(c7)C(=O)N(C7CCC(=O)NC7=O)C8=O)CC6)CC5)cc4)n3)C2)C1=O (stereo partly drawn) [Compound b] | 
2 | 55.6 min |  |  | < 1 nM | < 0.06 nM |  |  |  | CN1CCN([C@@H]2CCCN(c3nnc(C(N)=O)c(Nc4ccc(C5CCN(CC6CCN(c7cc8c(cc7F)C(=O)N(C7CCC(=O)NC7=O)C8=O)C6)CC5)cc4)n3)C2)C1=O (stereo partly drawn) [Compound 126, 5-((4-(1-((1-(2-(2,6-dioxopiperidin-3-yl)-6-fluoro-1,3-dioxoisoindolin-5-yl)pyrrolidin-3-yl)methyl)piperidin-4-yl)phenyl)amino)-3-((R)-3-(3-methyl-2-oxoimidazolin-1-yl)piperidin-1-yl)-1,2,4-triazin-6-carboxamide] | 2.99 nM
3 | > 30 min |  |  | < 1 nM | 0.56 nM | 2704 ng/ml*h/mpk | 13800 ng/mL |  | CN1CCN([C@@H]2CCCN(c3nnc(C(N)=O)c(Nc4ccc(N5CCN(CC6CCN(c7ccc(C(=O)N[C@H]8CCC(=O)NC8=O)nc7)C6)CC5)c(F)c4)n3)C2)C1=O (stereo partly drawn) [Compound 145, 5-((4-(4-((1-(6-(((S)-2,6-dioxopiperidin-3-yl)carbamoyl)pyridin-3-yl)pyrrolidin-3-yl)methyl)piperazin-1-yl)-3-fluorophenyl)amino)-3-((R)-3-(3-methyl-2-oxoimidazolin-1-yl)piperidin-1-yl)-1,2,4-triazin-6-carboxamide] | 4.15 nM
4 | > 30 min |  |  | < 1 nM | 1.79 nM |  |  |  | CN1CCN([C@@H]2CCCN(c3nnc(C(N)=O)c(Nc4ccc(N5CCN(CC6CCN(c7ccc(N8CCC(=O)NC8=O)nc7)CC6)CC5)c(F)c4)n3)C2)C1=O [Compound 195, (R)-5-((4-(4-((1-(6-(2,4-dioxotetrahydropyrimidin-1(2H)-yl)pyridin-3-yl)piperidin-4-yl)methyl)piperazin-1-yl)-3-fluorophenyl)amino)-3-(3-(3-methyl-2-oxoimidazolidin-1-yl)piperidin-1-yl)-1,2,4-triazin-6-carboxamide] | 8.53 nM
5 | 20 min |  |  | < 1 nM | 0.25 nM |  |  |  | CN1C(=O)N([C@@H]2CCCN(c3nnc(C(N)=O)c(Nc4ccc(C5CCN(CC6CCN(c7ccc8c(c7)C(=O)N(C7CCC(=O)NC7=O)C8=O)C6)CC5)cc4)n3)C2)C(=O)C12CC2 (stereo partly drawn) [Compound 137, 5-((4-(1-((1-(2-(2,6-dioxopiperidin-3-yl)-1,3-dioxoisoindolin-5-yl)pyrrolidin-3-yl)methyl)piperidin-4-yl)phenyl)amino)-3-((R)-3-(4-methyl-5,7-dioxo-4,6-diazaspiro[2.4]heptan-6-yl)piperidin-1-yl)-1,2,4-triazin-6-carboxamide] | 3.92 nM
6 | 146 min |  |  | < 1 nM | 3.49 nM |  |  |  | NC(=O)c1nnc(N2CC3CC(N4C(=O)c5ccccc5C4=O)C2C3)nc1Nc1ccc(C2CCN(CC3CCN(c4ccc5c(c4)C(=O)N(C4CCC(=O)NC4=O)C5=O)C3)CC2)cc1 (stereo not drawn) [Compound 144, 3-(6-(1,3-dioxoisoindolin-2-yl)-2-azabicyclo[2.2.1]heptan-2-yl)-5-((4-(1-((1-(2-(2,6-dioxopiperidin-3-yl)-1,3-dioxoisoindolin-5-yl)pyrrolidin-3-yl)methyl)piperidin-4-yl)phenyl)amino)-1,2,4-triazin-6-carboxamide] | 3.49 nM
7 | 39.1 min |  |  | < 1 nM | 0.33 nM |  |  |  | NC(=O)c1nnc(N2CC3CC(N4C(=O)c5ccccc5C4=O)C2C3)nc1Nc1ccc(C2CCN(CC3CCN(c4ccc5c(c4)C(=O)N(C4CCC(=O)NC4=O)C5=O)CC3)CC2)cc1 (stereo not drawn) [Compound 143, 3-(6-(1,3-dioxoisoindolin-2-yl)-2-azabicyclo[2.2.1]heptan-2-yl)-5-((4-(1-((1-(2-(2,6-dioxopiperidin-3-yl)-1,3-dioxoisoindolin-5-yl)piperidin-4-yl)methyl)piperidin-4-yl)phenyl)amino)-1,2,4-triazin-6-carboxamide] | 3.08 nM
8 | > 30 min |  |  | < 1 nM | 1.48 nM |  |  |  | CN1CCN([C@@H]2CCCN(c3nnc(C(N)=O)c(Nc4ccc(N5CCN(CC6CCN(c7ccc(N8CCC(=O)NC8=O)cc7)C6)CC5)c(F)c4)n3)C2)C1=O (stereo partly drawn) [Compound 147, 5-((4-(4-((1-(4-(2,4-dioxotetrahydropyrimidin-1(2H)-yl)phenyl)pyrrolidin-3-yl)methyl)piperazin-1-yl)-3-fluorophenyl)amino)-3-((R)-3-(3-methyl-2-oxoimidazolin-1-yl)piperidin-1-yl)-1,2,4-triazin-6-carboxamide] | 0.54 nM
9 | > 30 min |  |  | < 1 nM | 0.96 nM |  |  |  | COc1ccc(N2CCC(CN3CCN(c4ccc(Nc5nc(N6CCC[C@@H](N7CCN(C)C7=O)C6)nnc5C(N)=O)cc4F)CC3)C2)cc1N1CCC(=O)NC1=O (stereo partly drawn) [Compound 258, 5-((4-(4-((1-(3-(2,4-dioxotetrahydropyrimidin-1(2H)-yl)-4-methoxyphenyl)pyrrolidin-3-yl)methyl)piperazin-1-yl)-3-fluorophenyl)amino)-3-((R)-3-(3-methyl-2-oxoimidazolidin-1-yl)piperidin-1-yl)-1,2,4-triazin-6-carboxamide] | 5.31 nM
10 | > 30 min |  |  | < 1 nM | 3.21 nM |  |  |  | CN1CCN([C@@H]2CCCN(c3nnc(C(N)=O)c(Nc4ccc(N5CCN(CC6CCN(C(=O)c7ccc(F)c(N8CCC(=O)NC8=O)c7)C6)CC5)c(F)c4)n3)C2)C1=O (stereo partly drawn) [Compound 148, 5-((4-(4-((1-(3-(2,4-dioxotetrahydropyrimidin-1(2H)-yl)-4-fluorobenzoyl)pyrrolidin-3-yl)methyl)piperazin-1-yl)-3-fluorophenyl)amino)-3-((R)-3-(3-methyl-2-oxoimidazolin-1-yl)piperidin-1-yl)-1,2,4-triazin-6-carboxamide] | 7.79 nM
11 | 31.7 min |  |  | < 1 nM | 0.43 nM |  |  |  | CN1CCN([C@@H]2CCCN(c3nnc(C(N)=O)c(Nc4ccc(N5CCN(CC6CCN(c7ccc8c(c7)C(=O)N(C7CCC(=O)NC7=O)C8=O)C6)CC5)c(Cl)c4)n3)C2)C1=O (stereo partly drawn) [Compound 133, 5-((3-chloro-4-(4-((1-(2-(2,6-dioxopiperidin-3-yl)-1,3-dioxoisoindolin-5-yl)pyrrolidin-3-yl)methyl)piperazin-1-yl)phenyl)amino)-3-((R)-3-(3-methyl-2-oxoimidazolin-1-yl)piperidin-1-yl)-1,2,4-triazin-6-carboxamide] | 3.91 nM
12 | > 30 min |  |  | < 1 nM | 1.6 nM |  |  |  | CN1CCN([C@@H]2CCCN(c3nnc(C(N)=O)c(Nc4ccc(N5CCN(CC6CCN(c7ccc(F)c(N8CCC(=O)NC8=O)c7)C6)CC5)c(F)c4)n3)C2)C1=O (stereo partly drawn) [Compound 256, 5-((4-(4-((1-(3-(2,4-dioxotetrahydropyrimidin-1(2H)-yl)-4-fluorophenyl)pyrrolidin-3-yl)methyl)piperazin-1-yl)-3-fluorophenyl)amino)-3-((R)-3-(3-methyl-2-oxoimidazolidin-1-yl)piperidin-1-yl)-1,2,4-triazin-6-carboxamide] | 1.87 nM
13 | > 30 min |  |  | < 1 nM | 0.89 nM | 2536 ng/ml*h/mpk |  | > 6000 ng/mL | CN1CCN([C@@H]2CCCN(c3nnc(C(N)=O)c(Nc4ccc(N5CCN(CC6CCN(c7ccc(C(=O)NC8CCC(=O)NC8=O)c(F)c7)CC6)CC5)c(F)c4)n3)C2)C1=O (stereo partly drawn) [Compound 254, 5-((4-(4-((1-(4-((2,6-dioxopiperidin-3-yl)carbamoyl)-3-fluorophenyl)piperidin-4-yl)methyl)piperazin-1-yl)-3-fluorophenyl)amino)-3-((R)-3-(3-methyl-2-oxoimidazolidin-1-yl)piperidin-1-yl)-1,2,4-triazin-6-carboxamide] | 
